Reference: US9572801B2, “Tetrahydronaphthyridinyl propionic acid derivatives and uses thereof” (SciFluor Life Sciences, Inc., priority 2015, dated 2017)

How the values were obtained:
αvβ6 = αvβ6 (Homo sapiens, UniProt P06756+P18564); assay: αv integrin binding assay, αVβ6-LAP-TGF β1 interaction (integrin coupled beads, flow cytometry); conditions: ligand LAP-TGF β1 (LAP1) 10 nM; integrin 10 nM
Procedure: (§1) αVβ6/αVβ8—LAP-TGF β1 Binding Assay
(§2) Integrins αVβ6/αVβ8 coupled beads are treated with an αVβ6/αVβ8 ligand (e.g., LAP TGF-β1 (LAP1)), and the complex is incubated with a primary antibody (Ab), which can be labeled for detection (e.g., fluorescently labeled), and optionally with a secondary antibody, which can be labeled for detection (e.g., fluorescently labeled). Reaction between integrin coupled beads and the ligand was considered as the full reaction, and reaction without the ligand or a compound of the disclosure was considered as the blank reaction. The complex is analyzed, e.g., by either plate reader or Flow Cytometer, to determine modulation of binding between αVβ6/αVβ8 and the ligand (e.g., LAP-TGF Pβ1) by the compounds of the present application. […]
(§3) The integrin coupled Dyna beads were allowed to interact with respective ligands. The integrin-ligand complex was detected with either Primary/Secondary Antibody conjugated with Fluorescein Isothiocyanate (FITC). […] Fluorescence was measured by Flow Cytometry analysis.
(§4) αVβ6/αVβ8—LAP-TGF β1 interaction: αVβ6/αVβ8 coupled beads were treated with the ligand LAP TGF-β1 (LAP1) at room temperature for 3 hours. […] The complex was analyzed by either plate reader or Flow Cytometer. […]
(§5) Quantification: The samples were acquired using a BD FACSCalibur system and analyzed with BD Cell quest pro Version 6. […]

αvβ8 = αvβ8 (Homo sapiens, UniProt P06756+P26012); assay: αv integrin binding assay, αVβ8-LAP-TGF β1 interaction (integrin coupled beads, flow cytometry)
Sequence of αvβ8 (P06756 31-992 limits assumed): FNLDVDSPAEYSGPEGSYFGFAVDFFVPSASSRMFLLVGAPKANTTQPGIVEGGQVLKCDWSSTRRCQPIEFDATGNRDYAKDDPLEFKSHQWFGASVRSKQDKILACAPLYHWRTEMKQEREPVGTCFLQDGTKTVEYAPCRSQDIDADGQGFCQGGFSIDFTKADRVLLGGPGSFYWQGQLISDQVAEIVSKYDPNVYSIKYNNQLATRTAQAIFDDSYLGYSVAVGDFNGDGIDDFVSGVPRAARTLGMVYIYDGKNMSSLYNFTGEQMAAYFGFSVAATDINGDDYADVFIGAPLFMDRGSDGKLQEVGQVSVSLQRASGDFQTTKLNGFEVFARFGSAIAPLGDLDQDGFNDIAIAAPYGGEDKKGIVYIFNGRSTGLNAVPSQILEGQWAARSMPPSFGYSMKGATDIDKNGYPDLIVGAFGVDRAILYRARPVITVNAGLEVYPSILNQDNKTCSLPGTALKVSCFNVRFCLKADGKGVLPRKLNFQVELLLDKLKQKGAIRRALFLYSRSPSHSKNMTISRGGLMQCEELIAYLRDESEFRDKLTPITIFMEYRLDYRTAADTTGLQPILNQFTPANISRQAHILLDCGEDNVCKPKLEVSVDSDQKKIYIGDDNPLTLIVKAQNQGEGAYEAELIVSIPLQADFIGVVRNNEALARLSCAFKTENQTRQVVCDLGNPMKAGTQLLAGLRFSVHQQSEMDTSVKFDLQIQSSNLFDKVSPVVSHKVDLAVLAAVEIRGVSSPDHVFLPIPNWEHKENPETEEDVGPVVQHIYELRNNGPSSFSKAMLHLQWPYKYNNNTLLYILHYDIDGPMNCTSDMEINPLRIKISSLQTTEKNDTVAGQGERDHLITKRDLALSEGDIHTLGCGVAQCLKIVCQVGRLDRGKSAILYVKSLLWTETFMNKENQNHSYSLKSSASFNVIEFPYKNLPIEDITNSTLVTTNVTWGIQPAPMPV
Sequence of αvβ8 (P26012 43-684 limits assumed): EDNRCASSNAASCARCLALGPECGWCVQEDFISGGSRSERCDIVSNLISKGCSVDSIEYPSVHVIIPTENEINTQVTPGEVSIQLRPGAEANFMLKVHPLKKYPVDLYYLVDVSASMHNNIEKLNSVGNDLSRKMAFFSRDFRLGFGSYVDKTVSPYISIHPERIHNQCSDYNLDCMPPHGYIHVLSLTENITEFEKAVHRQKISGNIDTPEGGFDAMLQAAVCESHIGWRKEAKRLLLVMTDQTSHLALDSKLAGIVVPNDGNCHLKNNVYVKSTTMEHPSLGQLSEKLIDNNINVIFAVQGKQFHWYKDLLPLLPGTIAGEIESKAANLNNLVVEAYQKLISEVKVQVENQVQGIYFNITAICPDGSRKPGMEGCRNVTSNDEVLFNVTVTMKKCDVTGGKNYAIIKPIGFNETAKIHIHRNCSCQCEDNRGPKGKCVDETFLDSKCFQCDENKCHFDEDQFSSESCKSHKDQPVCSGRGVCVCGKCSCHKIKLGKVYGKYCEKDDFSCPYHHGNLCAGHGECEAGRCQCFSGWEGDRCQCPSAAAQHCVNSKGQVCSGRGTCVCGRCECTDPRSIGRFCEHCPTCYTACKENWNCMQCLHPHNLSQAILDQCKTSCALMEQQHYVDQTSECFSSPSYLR
Procedure: as §1, §2, §3, §4, §5

Sequence of αvβ6 (P06756 31-992 limits assumed): as the sequence (P06756 31-992 limits assumed) above
Sequence of αvβ6 (P18564 22-707 limits assumed): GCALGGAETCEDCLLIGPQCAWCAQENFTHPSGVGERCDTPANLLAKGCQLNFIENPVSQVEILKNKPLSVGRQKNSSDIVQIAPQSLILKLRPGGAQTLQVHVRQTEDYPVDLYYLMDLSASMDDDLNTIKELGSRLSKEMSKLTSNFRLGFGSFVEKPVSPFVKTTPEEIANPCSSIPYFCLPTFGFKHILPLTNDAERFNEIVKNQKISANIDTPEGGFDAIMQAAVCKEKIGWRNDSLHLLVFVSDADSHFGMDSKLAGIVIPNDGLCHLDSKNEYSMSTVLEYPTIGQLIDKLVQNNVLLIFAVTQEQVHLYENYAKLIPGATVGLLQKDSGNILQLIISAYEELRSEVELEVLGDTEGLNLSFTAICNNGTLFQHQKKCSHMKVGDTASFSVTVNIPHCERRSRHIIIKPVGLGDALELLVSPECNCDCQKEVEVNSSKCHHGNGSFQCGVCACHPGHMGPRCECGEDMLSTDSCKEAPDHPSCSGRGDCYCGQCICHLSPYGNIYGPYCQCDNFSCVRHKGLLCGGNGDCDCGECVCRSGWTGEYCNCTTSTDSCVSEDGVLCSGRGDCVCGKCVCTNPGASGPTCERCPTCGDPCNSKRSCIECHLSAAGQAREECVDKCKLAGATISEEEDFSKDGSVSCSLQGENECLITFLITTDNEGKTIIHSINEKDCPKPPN

IC50 (αvβ6): 9.57 nM
IC50 (αvβ8; ligand LAP-TGF β1 (LAP1) 20 nM, integrin 10 nM): 17.6 nM
αvβ8/αvβ6 (αvβ8; ratio of αvβ8 IC50 to αvβ6 IC50): 1.83
SMILES: COc1ccc([C@H](CC(=O)O)N2CCN(CCCc3ccc4c(n3)NCCC4)C2=O)cn1 [A1, (S)-3-(6-methoxypyridin-3-yl)-3-(2-oxo-3-(3-(5,6,7,8-tetrahydro-1,8-naphthyridin-2-yl)propyl)imidazolidin-1-yl)propanoic acid]
